Laboratory results reported in patent US20110178064A1, “SPIRO CONDENSED […] DERIVATIVES FOR USE AS ANTIBACTERIAL” (A[…]&D, priority 2007, published 2011).

The compounds below were run against Escherichia coli DNA gyrase A/B tetramer (Escherichia coli, UniProt P0AES4+P0AES6) (assay: DNA gyrase supercoiling activity fluorescence polarisation assay).
Assay type: biochemical
Method: The supercoiling reactions may be quenched by the addition of 10 microliters/well of 40 nM oligodeoxynucleotide probe in 3× triplex-forming buffer consisting of 150 mM NaCl, and 150 mM sodium acetate at pH 3.5. The oligodeoxynucleotide probe may be 5′-BODIPY-FL-labeled […]. After 60 minutes, the fluorescence anisotropy of the BODIPY-FL may be measured in a Tecan Ultra plate reader, using 485 nm excitation and 535 nm emission filters equipped with polarizers. The IC50 may be determined by nonliner regression using two control reactions. The first contains no test compound but 0.8% DMSO (100% activity) while the second control reaction contains 5 uM Ciprofloxacin and 0.8% DMSO (0% activity).

Chain of Escherichia coli DNA gyrase A/B tetramer (P0AES4 whole entry, one chain of several): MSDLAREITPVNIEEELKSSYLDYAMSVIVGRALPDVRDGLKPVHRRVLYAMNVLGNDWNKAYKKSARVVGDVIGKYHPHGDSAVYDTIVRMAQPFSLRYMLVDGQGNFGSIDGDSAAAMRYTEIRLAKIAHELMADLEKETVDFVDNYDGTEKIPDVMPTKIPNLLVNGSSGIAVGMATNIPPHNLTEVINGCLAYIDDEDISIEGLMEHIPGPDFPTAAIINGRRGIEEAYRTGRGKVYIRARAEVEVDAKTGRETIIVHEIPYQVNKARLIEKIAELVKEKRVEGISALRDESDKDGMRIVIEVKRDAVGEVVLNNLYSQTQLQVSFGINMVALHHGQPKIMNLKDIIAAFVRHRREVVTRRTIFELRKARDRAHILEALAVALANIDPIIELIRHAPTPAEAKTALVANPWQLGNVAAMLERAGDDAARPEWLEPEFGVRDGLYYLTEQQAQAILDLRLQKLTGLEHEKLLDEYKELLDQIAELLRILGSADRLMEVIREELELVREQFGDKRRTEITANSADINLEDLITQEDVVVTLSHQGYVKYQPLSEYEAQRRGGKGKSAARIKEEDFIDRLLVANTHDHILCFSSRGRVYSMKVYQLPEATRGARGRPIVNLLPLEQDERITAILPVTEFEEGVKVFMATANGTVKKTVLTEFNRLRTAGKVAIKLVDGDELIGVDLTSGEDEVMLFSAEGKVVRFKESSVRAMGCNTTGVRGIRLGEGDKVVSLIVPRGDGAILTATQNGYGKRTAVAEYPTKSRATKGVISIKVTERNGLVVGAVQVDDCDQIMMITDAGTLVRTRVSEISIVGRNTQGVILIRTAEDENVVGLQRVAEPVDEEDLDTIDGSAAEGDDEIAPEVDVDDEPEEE

Row | Compound | IC50 [µM]
1 | Cc1noc(C)c1-c1cc2c(cn1)N1C[C@@H](C)O[C@@H](C)[C@@H]1C1(C2)C(=O)NC(=O)NC1=O (relative stereo) [Example 64, (6aS,7S,9R)-rel-3-(3,5-Dimethylisoxazol-4-yl)-7,9-dimethyl-6a,7,9,10-tetrahydro-2′H,5H-spiro[1,4-oxazino[4,3-a][1,7]naphthyridine-6,5′-pyrimidine]-2′,4′,6′(1′H,3′H)-trione] | > 83
2 | C[C@@H]1CN2c3cnc(-c4ccncc4)cc3CC3(C(=O)NC(=O)NC3=O)[C@H]2[C@H](C)O1 (relative stereo) [Example 65, (6aS,7S,9R)-rel-7,9-Dimethyl-3-(pyridin-4-yl)-6a,7,9,10-tetrahydro-2′H,5H-spiro[1,4-oxazino[4,3-a][1,7]naphthyridine-6,5′-pyrimidine]-2′,4′,6′(1′H,3′H)-trione] | > 10
3 | C[C@@H]1CN2c3cnc(-c4cnn(C)c4)cc3CC3(C(=O)NC(=O)NC3=O)[C@H]2[C@H](C)O1 (relative stereo) [Example 66, (6aS,7S,9R)-rel-7,9-dimethyl-3-(1-methyl-1H-pyrazol-4-yl)-6a,7,9,10-tetrahydro-2′H,5H-spiro[1,4-oxazino[4,3-a][1,7]naphthyridine-6,5′-pyrimidine]-2′,4′,6′(1′H,3′H)-trione] | > 83
4 | C[C@@H]1CN2c3ccc(-c4cc5ccccc5o4)nc3CC3(C(=O)NC(=O)NC3=O)[C@H]2[C@H](C)O1 (relative stereo) [Example 68, (2R,4S,4aS)-rel-8-(1-Benzofuran-2-yl)-2,4-dimethyl-1,2,4,4a-tetrahydro-2′H,6H-spiro[1,4-oxazino[4,3-a][1,5]naphthyridine-5,5′-pyrimidine]-2′,4′,6′(1′H,3′H)-trione] | 8
5 | C[C@@H]1CN2c3ccc(-c4ccnn4C)nc3CC3(C(=O)NC(=O)NC3=O)[C@H]2[C@H](C)O1 (relative stereo) [Example 70, (2R,4S,4aS)-rel-2,4-Dimethyl-8-(1-methyl-1H-pyrazol-5-yl)-1,2,4,4a-tetrahydro-2′H,6H-spiro[1,4-oxazino[4,3-a][1,5]naphthyridine-5,5′-pyrimidine]-2′,4′,6′(1′H,3′H)-trione] | 3
6 | COc1ccncc1-c1ccc2c(n1)CC1(C(=O)NC(=O)NC1=O)[C@H]1[C@H](C)O[C@H](C)CN21 (relative stereo) [Example 71, (2R,4S,4aS)-rel-8-(4-Methoxypyridin-3-yl)-2,4-dimethyl-1,2,4,4a-tetrahydro-2′H,6H-spiro[1,4-oxazino[4,3-a][1,5]naphthyridine-5,5′-pyrimidine]-2′,4′,6′(1′H,3′H)-trione] | 16
7 | C[C@@H]1CN2c3ccc(-c4cncnc4)nc3CC3(C(=O)NC(=O)NC3=O)[C@H]2[C@H](C)O1 (relative stereo) [Example 73, (2R,4S,4aS)-rel-2,4-Dimethyl-8-(pyrimidin-5-yl)-1,2,4,4a-tetrahydro-2′H,6H-spiro[1,4-oxazino[4,3-a][1,5]naphthyridine-5,5′-pyrimidine]-2′,4′,6′(1′H,3′H)-trione] | 3
8 | C[C@@H]1CN2c3ccc(-c4cccnc4)nc3CC3(C(=O)NC(=O)NC3=O)[C@H]2[C@H](C)O1 (relative stereo) [Example 74, (2R,4S,4aS)-rel-2,4-Dimethyl-8-(pyridin-3-yl)-1,2,4,4a-tetrahydro-2′H,6H-spiro[1,4-oxazino[4,3-a][1,5]naphthyridine-5,5′-pyrimidine]-2′,4′,6′(1′H,3′H)-trione] | 4
9 | C[C@@H]1CN2c3ccc(-c4cccc5cccnc45)nc3CC3(C(=O)NC(=O)NC3=O)[C@H]2[C@H](C)O1 (relative stereo) [Example 75, (2R,4S,4aS)-rel-2,4-Dimethyl-8-(quinolin-8-yl)-1,2,4,4a-tetrahydro-2′H,6H-spiro[1,4-oxazino[4,3-a][1,5]naphthyridine-5,5′-pyrimidine]-2′,4′,6′(1′H,3′H)-trione] | 8
10 | C[C@@H]1CN2c3ccc(-c4ccoc4)nc3CC3(C(=O)NC(=O)NC3=O)[C@H]2[C@H](C)O1 (relative stereo) [Example 76, (2R,4S,4aS)-rel-8-(Furan-3-yl)-2,4-dimethyl-1,2,4,4a-tetrahydro-2′H,6H-spiro[1,4-oxazino[4,3-a][1,5]naphthyridine-5,5′-pyrimidine]-2′,4′,6′(1′H,3′H)-trione] | 21
11 | Cc1noc(C)c1-c1ccc2c(n1)CC1(C(=O)NC(=O)NC1=O)[C@H]1[C@H](C)O[C@H](C)CN21 (relative stereo) [Example 77, (2R,4S,4aS)-rel-8-(3,5-Dimethylisoxazol-4-yl)-2,4-dimethyl-1,2,4,4a-tetrahydro-2′H,6H-spiro[1,4-oxazino[4,3-a][1,5]naphthyridine-5,5′-pyrimidine]-2′,4′,6′(1′H,3′H)-trione] | 8
12 | C[C@@H]1CN2c3ccc(-c4ccncc4)nc3CC3(C(=O)NC(=O)NC3=O)[C@H]2[C@H](C)O1 (relative stereo) [Example 78, (2R,4S,4aS)-rel-2,4-dimethyl-8-(pyridin-4-yl)-1,2,4,4a-tetrahydro-2′H,6H-spiro[1,4-oxazino[4,3-a][1,5]naphthyridine-5,5′-pyrimidine]-2′,4′,6′(1′H,3′H)-trione] | 2
13 | C[C@@H]1CN2c3ccc(-c4cnn(C)c4)nc3CC3(C(=O)NC(=O)NC3=O)[C@H]2[C@H](C)O1 (relative stereo) [Example 79, (2R,4S,4aS)-rel-2,4-Dimethyl-8-(1-methyl-1H-pyrazol-4-yl)-1,2,4,4a-tetrahydro-2′H,6H-spiro[1,4-oxazino[4,3-a][1,5]naphthyridine-5,5′-pyrimidine]-2′,4′,6′(1′H,3′H)-trione] | 17
14 | C[C@@H]1CN2c3ccc(-c4cnccn4)nc3CC3(C(=O)NC(=O)NC3=O)[C@H]2[C@H](C)O1 (relative stereo) [Example 80, (2R,4S,4aS)-rel-2,4-Dimethyl-8-(pyrazin-2-yl)-1,2,4,4a-tetrahydro-2′H,6H-spiro[1,4-oxazino[4,3-a][1,5]naphthyridine-5,5′-pyrimidine]-2′,4′,6′(1′H,3′H)-trione] | > 5
15 | C[C@@H]1CN2c3ncc(-c4ccc(F)cc4)cc3CC3(C(=O)NC(=O)NC3=O)[C@H]2[C@H](C)O1 (relative stereo) [Example 81, (6aS,7S,9R)-rel-3-(4-Fluorophenyl)-7,9-dimethyl-6a,7,9,10-tetrahydro-2′H,5H-spiro[1,4-oxazino[4,3-a][1,8]naphthyridine-6,5′-pyrimidine]-2′,4′,6′(1′H,3′H)-trione] | 8
16 | Cc1ccccc1-c1cnc2c(c1)CC1(C(=O)NC(=O)NC1=O)[C@H]1[C@H](C)O[C@H](C)CN21 (relative stereo) [Example 82, (6aS,7S,9R)-rel-7,9-Dimethyl-3-(2-methylphenyl)-6a,7,9,10-tetrahydro-2′H,5H-spiro[1,4-oxazino[4,3-a][1,8]naphthyridine-6,5′-pyrimidine]-2′,4′,6′(1′H,3′H)-trione] | > 83
17 | COc1ccccc1-c1cnc2c(c1)CC1(C(=O)NC(=O)NC1=O)[C@H]1[C@H](C)O[C@H](C)CN21 (relative stereo) [Example 83, (6aS,7S,9R)-rel-3-(2-Methoxyphenyl)-7,9-dimethyl-6a,7,9,10-tetrahydro-2′H,5H-spiro[1,4-oxazino[4,3-a][1,8]naphthyridine-6,5′-pyrimidine]-2′,4′,6′(1′H,3′H)-trione] | > 83
18 | C[C@@H]1CN2c3ncc(-c4ccccc4)cc3CC3(C(=O)NC(=O)NC3=O)[C@H]2[C@H](C)O1 (relative stereo) [Example 84, (6aS,7S,9R)-rel-7,9-Dimethyl-3-phenyl-6a,7,9,10-tetrahydro-2′H,5H-spiro[1,4-oxazino[4,3-a][1,8]naphthyridine-6,5′-pyrimidine]-2′,4′,6′(1′H,3′H)-trione] | 7
19 | C[C@@H]1CN2c3ccc(-c4nccs4)nc3CC3(C(=O)NC(=O)NC3=O)[C@H]2[C@H](C)O1 (relative stereo) [Example 85, (2R,4S,4aS)-rel-2,4-Dimethyl-8-(1,3-thiazol-2-yl)-1,2,4,4a-tetrahydro-2′H,6H-spiro[1,4-oxazino[4,3-a][1,5]naphthyridine-5,5′-pyrimidine]-2′,4′,6′(1′H,3′H)-trione] | 8
20 | C[C@@H]1CN2c3ncc(-c4nc5ccccc5s4)cc3CC3(C(=O)NC(=O)NC3=O)[C@H]2[C@H](C)O1 (relative stereo) [Example 87, (6aS,7S,9R)-rel-3-(1,3-Benzothiazol-2-yl)-7,9-dimethyl-6a,7,9,10-tetrahydro-2′H,5H-spiro[1,4-oxazino[4,3-a][1,8]naphthyridine-6,5′-pyrimidine]-2′,4′,6′(1′H,3′H)-trione] | 4
21 | C[C@@H]1CN2c3ccc(-c4nc5ccccc5s4)nc3CC3(C(=O)NC(=O)NC3=O)[C@H]2[C@H](C)O1 (relative stereo) [Example 88, (2R,4S,4aS)-rel-8-(1,3-Benzothiazol-2-yl)-2,4-dimethyl-1,2,4,4a-tetrahydro-2′H,6H-spiro[1,4-oxazino[4,3-a][1,5]naphthyridine-5,5′-pyrimidine]-2′,4′,6′(1′H,3′H)-trione] | 2
22 | C[C@@H]1CN2c3cnc(-c4nc5ccccc5s4)cc3CC3(C(=O)NC(=O)NC3=O)[C@H]2[C@H](C)O1 (relative stereo) [Example 89, (6aS,7S,9R)-rel-3-(1,3-benzothiazol-2-yl)-7,9-dimethyl-6a,7,9,10-tetrahydro-2′H,5H-spiro[1,4-oxazino[4,3-a][1,7]naphthyridine-6,5′-pyrimidine]-2′,4′,6′(1′H,3′H)-trione] | 11
23 | C[C@@H]1CN2c3ncc(-c4cncn4C)cc3CC3(C(=O)NC(=O)NC3=O)[C@H]2[C@H](C)O1 (relative stereo) [Example 90, (6aS,7S,9R)-rel-7,9-Dimethyl-3-(1-methyl-1H-imidazol-5-yl)-6a,7,9,10-tetrahydro-2′H,5H-spiro[1,4-oxazino[4,3-a][1,8]naphthyridine-6,5′-pyrimidine]-2′,4′,6′(1′H,3′H)-trione] | 21
